In patent US8372889B2, “Methods for modulating metabolism” (Omega Biopharma (I.P.3) Limited, priority 2004, dated 2013):
Counter-ions that a name gives are not always drawn.

Legend:
[1] = system: glut 4; assay: glut 4 expression in different tissues of GK diabetic rats (Example 3); type: in vivo, rat; conditions: liver, muscles, adipocytes
Procedure: Thirty-six Goto-Kakizaki Wistar (GK) rats (purchased from Shanghai Slaccas Laboratory Animal Center) aged about 13 weeks and weighting 321-323 g were acclimated to the animal facility for two weeks in individual cages. Food and water were provided ad libitum. The 36 GK rats were divided into 4 groups based on body weight (BW) and plasma glucose level. […] Group 2 (DC, n=6) was treated with cysteamine hydrochloride by gavage (22.5 mg/kg BW in 2 ml tap water); […] All animals were treated at 10:00 for 20 days.

[2] = system: GK diabetic rats; assay: Plasma insulin and adiponectin in GK diabetic rats (Example 3); type: in vivo, rat
Procedure: (§1) Thirty-six Goto-Kakizaki Wistar (GK) rats (purchased from Shanghai Slaccas Laboratory Animal Center) aged about 13 weeks and weighting 321-323 g were acclimated to the animal facility for two weeks in individual cages. Food and water were provided ad libitum.
(§2) The 36 GK rats were divided into 4 groups based on body weight (BW) and plasma glucose level. Group 1 (control, n=10) was treated with saline by gavage (2 ml/rat); Group 2 (DC, n=6) was treated with cysteamine hydrochloride by gavage (22.5 mg/kg BW in 2 ml tap water); Group 3 (Metformin, Met, n=10) was treated with Metformin by gavage (34 mg/kg BW in 2 ml tap water); Group 4 (Met+DC, n=10) was treated with Metformin 34 mg/kg BW/day in 2 ml tap water for the first 10 days and then was treated with both cysteamine hydrochloride 22.5 mg/kg BW plus Metformin 34 mg/kg BW in 2 ml tap water for the second 10 days. All animals were treated at 10:00 for 20 days.
The four groups of animals were kept in the same room (temp 23±3° ., relative humidity 65±1%) in different cages with wire mesh bottoms to reduce coprophagia throughout the experiment. The rats were subjected to fasting overnight from 22:00 to 9:30 of the following day before being subjected to a glucose tolerance test. The rats were treated with glucose 2 g/kg BW in 2 ml tap water at 9:30 for the glucose tolerance test and the blood was collected from the tail vein at 0.5 hr, 1 hr, 2 hr, and 3 hr after glucose injection. Plasma glucose concentrations were determined by Glucotrendr2 equipment (Roche Diagnostics, Basel, Switzerland). Plasma insulin concentrations were determined by radioimmunoassay (Insulin RIA Kit, NO:0410, purchased from Shanghai Radioimmunoassay Research Institution).

[3] = system: Goto-Kakizaki Wistar rats (GK rats); assay: Oral glucose tolerance test and starving plasma glucose in GK rats (Example 1); conditions: oral Metformin alone
Procedure: Nineteen male Goto-Kakizaki Wistar rats (GK rats) with weights of 300±20 g were kept in steel cages, 3-4 rats per cage. The cages were changed every two days. Indoor temperature and relative humidity was kept at 23±3° . and 65±1% respectively. Feed and drinking water was provided. GK rats were permitted a one-month period for adaptation.
One day prior to experimentation, at 17:00, all of the feed was removed from all groups, but not the drinking water. On the second day, at 09:30, starving plasma glucose was measured for all GK rats. At 10:00, glucose tolerance test (2 g/kg BW) was performed and the plasma glucose level was measured as well for all GK rats. […] On the ninth day, starving plasma glucose was measured and oral glucose tolerance test was performed again for all GK rats in all groups. […]
Six days following the change in regimen, starving plasma glucose was measured and glucose tolerance tests were performed, and blood and tissue samples were collected (liver, duodenum, pancreas gland, fat, and muscle) for all GK rats in all groups. […]
The glucose tolerance tests that were performed included the steps of starving the GK rats overnight. Next day at 09:30, starving plasma glucose was measured. […]

[4] = system: diabetic patients; assay: Open-label, randomized trial in diabetes type II patients (Example 4); conditions: for 24 h Microalbuminuria, Pre-treatment / FBS (fasting blood sugar), Pre-treatment / FCP (C peptide), Pre-treatment / FINS (fasting insulin), Pre-treatment / HOMA (Homeostasis Model Assessment), Pre-treatment / IGF, Pre-treatment / UA (blood uric acid), Pre-treatment: baseline before the trial treatment
Procedure: A small open-label, randomized trial was carried out at the national reference center for diabetes in China. Sixty patients of both sexes (ages ranged from 30 to 75 years old) diagnosed with diabetes type II were recruited. All subjects were informed and gave their consent to participate. Diabetes was diagnosed based on the WHO criteria set in 1999. […] Patients with the following conditions were excluded from the study: (1) dysfunction of heart, liver and/or kidney; (2) with acute diabetic complications and/or any acute cardiovascular complications or other chronic diseases in the past three months; and (3) pregnancy or nursing.
Patients were divided randomly into four groups of 15 patients each. A control group of subjects was not administered anti-diabetic drugs. The cysteamine alone (DC) group was treated with 540 mg/day of cysteamine hydrochloride. In the Metformin alone (Met) group, the dose of Metformin remained unchanged during the two months period. For the DC+Met group, patients remained on the same dose of Metformin they were originally administered, including an additional 100 mg/day of cysteamine hydrochloride. All patients were subjected to treatments for two months and samples were collected and measured at the beginning of, one month after, and two month after the trial for analysis. The results described herein are derived from the samples collected and measured at the beginning of the first month after the trial.

[5] = system: fat-feed rats; assay: Lipids, free fatty acid and uric acid in fat-feed rats (Example 5); type: in vivo, rat; conditions: for CH / FFA / HDL / LDL / TG / UA: Mean + STD
[6] = system: normal Wistar rats; assay: Fasting plasma glucose and insulin in normal Wistar rats (Example 2); type: in vivo, rat; conditions: for Fasting glucose / Fasting insulin: normal Wistar rats, Mean ± STD
Procedure: Thirty-two male Wistar rats (purchased from Shanghai Slaccas Laboratory Animal Center) aged about 13 weeks and weighting around 300 g were acclimated to the animal facility for two weeks in individual cages. Food and water were provided ad libitum. The Wistar rats were divided randomly into 4 groups and each group contained 8 rats. […] All animals were treated at 10:00 for 27 days. The four groups of animals were kept in the same room in different cages with wire mesh bottoms to reduce coprophagia throughout the experiment. […] Plasma glucose concentrations were determined by Glucotrendr2 equipment (Roche Diagnostics, Basel, Switzerland). Plasma insulin concentrations were determined by radioimmunoassay (Insulin RIA Kit, NO:0410, purchased from Shanghai Radioimmunoassay Research Institution). The abbreviation STD denotes the variability of the data about the mean or “standard deviation.” The abbreviation p denotes the level of significance of the results.

[7] = system: GK diabetic rats; assay: Glucose tolerance test in GK diabetic rats (Example 3); type: in vivo, rat
Procedure: as §1, §2
The four groups of animals were kept in the same room (temp 23±3° ., relative humidity 65±1%) in different cages with wire mesh bottoms to reduce coprophagia throughout the experiment. […] Plasma glucose concentrations were determined by Glucotrendr2 equipment (Roche Diagnostics, Basel, Switzerland). Plasma insulin concentrations were determined by radioimmunoassay (Insulin RIA Kit, NO:0410, purchased from Shanghai Radioimmunoassay Research Institution).

[8] = doses of 11.25 mg/kg and 22.5 mg/kg
[9] = DC15: 15 mg/kg BW by gavage for 27 days
[10] = DC22.5: 22.5 mg/kg BW by gavage for 27 days
[11] = DC30: 30 mg/kg BW by gavage for 27 days
[12] = normal, fasting Wistar rats, 15-30 mg/kg BW

SMILES: CN(C)C(=N)N=C(N)N [Metformin, reference compound]
- expression of total glut4 (in words) [1]: increased, but not significantly
- insulin levels (in words) [2]: decreased, but not statistically significant
- duodenal plasma glucose levels and insulin resistance (in words) [3]: to some extent, lowers
- insulin-like growth factor 1 (IGF1) (in words) [4]: only a decrease
- 24 h Microalbuminuria, Pre-treatment [4]: 27.5 ± 23.69
- FBS (fasting blood sugar), Pre-treatment [4]: 8.92 ± 2.7
- FCP (C peptide), Pre-treatment [4]: 579 ± 212
- FINS (fasting insulin), Pre-treatment [4]: 19.35 ± 10.2
- HOMA (Homeostasis Model Assessment), Pre-treatment [4]: 7.33 ± 3.3
- IGF, Pre-treatment [4]: 52.81 ± 10.04
- UA (blood uric acid), Pre-treatment [4]: 320 ± 67

SMILES: NCCS [cysteamine hydrochloride]
- expression of total glut4 (in words) [1]: significantly increase
- LDL (in words) [5]: decrease LDL but not significantly
- CH ([5]; DC11.25: 11.25 mg/kg): 1.6 ± 0.31 mmol/L
- FFA ([5]; DC11.25: 11.25 mg/kg): 842 ± 256 µmol/L
- HDL ([5]; DC11.25: 11.25 mg/kg): 1.11 ± 0.16 mmol/L
- LDL ([5]; DC11.25: 11.25 mg/kg): 0.61 ± 0.18 mmol/L
- TG ([5]; DC11.25: 11.25 mg/kg): 1.15 ± 0.12 mmol/L
- UA ([5]; DC11.25: 11.25 mg/kg): 17.41 ± 1.99 mg/L
- CH ([5]; DC22.5: 22.5 mg/kg): 1.55 ± 0.27 mmol/L
- FFA ([5]; DC22.5: 22.5 mg/kg): 1087 ± 181 µmol/L
- HDL ([5]; DC22.5: 22.5 mg/kg): 1.04 ± 0.09 mmol/L
- LDL ([5]; DC22.5: 22.5 mg/kg): 0.63 ± 0.18 mmol/L
- TG ([5]; DC22.5: 22.5 mg/kg): 1.1 ± 0.08 mmol/L
- UA ([5]; DC22.5: 22.5 mg/kg): 16.12 ± 1.04 mg/L
- free fatty acid (in words) ([5]; at doses indicated): significantly decrease
- uric acid (in words) ([5]; at doses indicated): significantly decrease
- cholesterol levels (in words) [5, 8]: can decrease
- triglyceride levels (in words) [5, 8]: can decrease
- HDL (in words) ([5]; not significantly): trend that cysteamine can increase HDL
- adiponectin (in words) [2]: significantly increased
- insulin levels (in words) [2]: did not affect
- Fasting glucose [6, 9]: 4.05 ± 0.23
- Fasting insulin [6, 9]: 48.82 ± 3.27
- Fasting glucose [6, 10]: 3.94 ± 0.27
- Fasting insulin [6, 10]: 48.39 ± 2.38
- Fasting glucose [6, 11]: 3.95 ± 0.17
- Fasting insulin [6, 11]: 51.32 ± 2.94
- blood glucose levels (in words) [6, 12]: dose-dependent effect on lowering
- blood insulin levels (in words) [6, 12]: does not affect
- Glucose tolerance test, plasma glucose, 2 hr ([7]; gavage DC 22.5 mg/kg BW, Metformin 34 mg/kg BW, 20 days, Met+DC: DC added for second 10 days, after glucose 2 g/kg BW, Mean ± STD): 11.00 ± 0.8 mmol/L
- glucose levels (in words) ([7]; glucose tolerance test, combination compared with Metformin alone, all time points except Fasting): did not affect
- C peptide (CP) (in words) [4]: decreases significantly
- HOMA (Homeostasis Model Assessment) (in words) [4]: decreases significantly
- blood uric acid (UA) levels (in words) [4]: decreases significantly
- fasting insulin (FINS) (in words) [4]: decreases significantly
- insulin-like growth factor 1 (IGF1) (in words) [4]: decreases significantly
- microalbuminuria (in words) [4]: obvious but not statistically significantly
- 24 h Microalbuminuria, Pre-treatment [4]: 42.73 ± 31.33
- FBS (fasting blood sugar), Pre-treatment [4]: 7.52 ± 1.57
- FCP (C peptide), Pre-treatment [4]: 739 ± 183
- FINS (fasting insulin), Pre-treatment [4]: 35.39 ± 14.43
- HOMA (Homeostasis Model Assessment), Pre-treatment [4]: 11.94 ± 4.62
- IGF, Pre-treatment [4]: 49.36 ± 5.75
- UA (blood uric acid), Pre-treatment [4]: 389 ± 50.98
